# The source made the active and inactive calls.
# Legend:
# Melanocortin receptor 4 = Melanocortin receptor 4 (Homo sapiens, UniProt P32245); assay: MC4R antagonist potency on cAMP, dose response, cell-based, TR-FRET, biased antagonists (AID 602298); assay type: functional;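 note: antagonist potency against agonist-stimulated cAMP production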
# [1] = molecular target: Heat shock protein HSP 90-alpha (Homo sapiens, UniProt P07900); assay type: functional, organism-based
# CAAX prenyl protease 1 = CAAX prenyl protease 1 (Saccharomyces cerevisiae S288c, UniProt P47154); assay: Ste24 protease inhibitors, dose response, biochemical, S. cerevisiae, plate reader, cherry-pick (AID 488815)
# [2] = molecular target: Dual specificity protein kinase CLK4 (Homo sapiens, UniProt Q9HAZ1); assay type: functional
# [3] = molecular target: Tyrosine-protein kinase receptor TYRO3 (Homo sapiens, UniProt Q06418); assay type: functional;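 note: TYRO3 value obtained as one member of a kinome-wide profiling panel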
# Sequence of Tyrosine-protein kinase receptor TYRO3 (Q06418 whole entry): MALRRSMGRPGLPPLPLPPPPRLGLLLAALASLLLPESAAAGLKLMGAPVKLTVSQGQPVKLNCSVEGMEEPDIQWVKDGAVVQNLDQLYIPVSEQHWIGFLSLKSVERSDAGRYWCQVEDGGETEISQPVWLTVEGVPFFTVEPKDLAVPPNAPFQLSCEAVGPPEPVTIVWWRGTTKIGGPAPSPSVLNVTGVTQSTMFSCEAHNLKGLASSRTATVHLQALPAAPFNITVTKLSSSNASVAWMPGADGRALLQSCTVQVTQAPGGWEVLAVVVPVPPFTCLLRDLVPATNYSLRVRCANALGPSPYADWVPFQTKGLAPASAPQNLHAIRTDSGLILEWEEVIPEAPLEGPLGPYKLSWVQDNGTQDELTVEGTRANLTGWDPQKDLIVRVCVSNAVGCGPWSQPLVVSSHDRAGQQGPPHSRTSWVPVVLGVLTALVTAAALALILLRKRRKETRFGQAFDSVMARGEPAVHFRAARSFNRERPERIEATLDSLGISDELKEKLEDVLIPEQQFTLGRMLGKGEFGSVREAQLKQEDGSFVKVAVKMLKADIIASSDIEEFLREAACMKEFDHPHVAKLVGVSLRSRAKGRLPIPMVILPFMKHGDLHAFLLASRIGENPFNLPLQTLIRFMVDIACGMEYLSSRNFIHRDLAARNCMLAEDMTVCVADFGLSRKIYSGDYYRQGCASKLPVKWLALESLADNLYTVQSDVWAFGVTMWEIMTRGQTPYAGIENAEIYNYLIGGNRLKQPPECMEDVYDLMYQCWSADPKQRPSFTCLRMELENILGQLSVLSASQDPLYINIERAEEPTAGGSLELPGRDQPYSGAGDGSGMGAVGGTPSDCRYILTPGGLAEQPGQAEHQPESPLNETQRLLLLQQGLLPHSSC
# [4] = molecular target: High affinity nerve growth factor receptor (Homo sapiens, UniProt P04629); assay type: functional;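 note: NTRK1 tested as one member of a kinome-wide profiling panel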
# Sequence of High affinity nerve growth factor receptor (P04629 whole entry): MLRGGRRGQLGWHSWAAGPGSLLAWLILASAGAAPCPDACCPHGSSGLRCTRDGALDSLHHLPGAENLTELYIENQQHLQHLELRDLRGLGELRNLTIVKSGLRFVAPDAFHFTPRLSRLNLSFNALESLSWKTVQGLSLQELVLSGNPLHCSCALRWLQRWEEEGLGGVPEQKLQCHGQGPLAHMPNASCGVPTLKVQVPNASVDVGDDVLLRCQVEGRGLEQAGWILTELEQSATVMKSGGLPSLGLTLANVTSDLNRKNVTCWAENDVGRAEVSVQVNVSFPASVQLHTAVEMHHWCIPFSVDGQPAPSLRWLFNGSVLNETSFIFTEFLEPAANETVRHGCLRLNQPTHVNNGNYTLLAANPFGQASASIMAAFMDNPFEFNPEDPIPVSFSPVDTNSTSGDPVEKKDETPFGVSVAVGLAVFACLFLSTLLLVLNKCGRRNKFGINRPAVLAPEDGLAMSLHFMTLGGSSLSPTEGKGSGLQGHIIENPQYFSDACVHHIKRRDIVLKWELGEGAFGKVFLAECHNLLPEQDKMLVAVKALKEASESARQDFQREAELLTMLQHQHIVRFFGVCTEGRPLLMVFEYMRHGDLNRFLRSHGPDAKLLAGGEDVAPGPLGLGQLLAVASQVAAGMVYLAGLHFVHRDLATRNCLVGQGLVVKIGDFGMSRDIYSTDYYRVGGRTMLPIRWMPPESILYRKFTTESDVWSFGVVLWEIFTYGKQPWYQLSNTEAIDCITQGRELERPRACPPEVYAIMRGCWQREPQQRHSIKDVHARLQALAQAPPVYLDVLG
# [5] = molecular target: Macrophage colony-stimulating factor 1 receptor (Homo sapiens, UniProt P07333); assay type: functional;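 note: value comes from the Navigating the Kinome screening panel, CSF1R member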
# Sequence of Macrophage colony-stimulating factor 1 receptor (P07333 whole entry): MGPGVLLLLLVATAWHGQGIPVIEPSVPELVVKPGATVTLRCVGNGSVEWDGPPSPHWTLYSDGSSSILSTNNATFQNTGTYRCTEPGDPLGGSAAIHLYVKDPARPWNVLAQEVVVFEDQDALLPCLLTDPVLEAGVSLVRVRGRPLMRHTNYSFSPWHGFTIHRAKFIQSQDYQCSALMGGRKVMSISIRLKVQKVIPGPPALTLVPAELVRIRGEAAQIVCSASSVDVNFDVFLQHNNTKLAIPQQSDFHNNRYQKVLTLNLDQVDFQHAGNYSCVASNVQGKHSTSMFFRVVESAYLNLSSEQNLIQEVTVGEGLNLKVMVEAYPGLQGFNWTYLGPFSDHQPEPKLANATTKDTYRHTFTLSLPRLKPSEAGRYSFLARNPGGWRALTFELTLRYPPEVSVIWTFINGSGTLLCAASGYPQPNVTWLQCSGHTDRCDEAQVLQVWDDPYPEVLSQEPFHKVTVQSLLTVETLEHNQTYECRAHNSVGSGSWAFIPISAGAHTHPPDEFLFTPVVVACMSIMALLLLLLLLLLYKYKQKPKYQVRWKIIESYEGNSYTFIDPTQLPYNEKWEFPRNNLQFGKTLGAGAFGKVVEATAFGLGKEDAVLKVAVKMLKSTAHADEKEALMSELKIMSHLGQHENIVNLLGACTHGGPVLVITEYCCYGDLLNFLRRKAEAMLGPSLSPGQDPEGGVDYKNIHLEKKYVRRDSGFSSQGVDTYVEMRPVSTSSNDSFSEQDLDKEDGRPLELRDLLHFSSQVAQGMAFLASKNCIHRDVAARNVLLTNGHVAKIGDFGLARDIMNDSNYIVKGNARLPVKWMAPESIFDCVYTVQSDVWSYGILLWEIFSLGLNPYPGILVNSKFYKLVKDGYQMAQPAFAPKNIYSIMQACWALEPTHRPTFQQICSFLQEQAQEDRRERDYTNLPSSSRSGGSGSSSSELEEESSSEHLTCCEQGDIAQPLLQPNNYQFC
# [6] = molecular target: Serine/threonine-protein kinase TAO1 (Homo sapiens, UniProt Q7L7X3); assay type: functional
# Sequence of Serine/threonine-protein kinase TAO1 (Q7L7X3 whole entry): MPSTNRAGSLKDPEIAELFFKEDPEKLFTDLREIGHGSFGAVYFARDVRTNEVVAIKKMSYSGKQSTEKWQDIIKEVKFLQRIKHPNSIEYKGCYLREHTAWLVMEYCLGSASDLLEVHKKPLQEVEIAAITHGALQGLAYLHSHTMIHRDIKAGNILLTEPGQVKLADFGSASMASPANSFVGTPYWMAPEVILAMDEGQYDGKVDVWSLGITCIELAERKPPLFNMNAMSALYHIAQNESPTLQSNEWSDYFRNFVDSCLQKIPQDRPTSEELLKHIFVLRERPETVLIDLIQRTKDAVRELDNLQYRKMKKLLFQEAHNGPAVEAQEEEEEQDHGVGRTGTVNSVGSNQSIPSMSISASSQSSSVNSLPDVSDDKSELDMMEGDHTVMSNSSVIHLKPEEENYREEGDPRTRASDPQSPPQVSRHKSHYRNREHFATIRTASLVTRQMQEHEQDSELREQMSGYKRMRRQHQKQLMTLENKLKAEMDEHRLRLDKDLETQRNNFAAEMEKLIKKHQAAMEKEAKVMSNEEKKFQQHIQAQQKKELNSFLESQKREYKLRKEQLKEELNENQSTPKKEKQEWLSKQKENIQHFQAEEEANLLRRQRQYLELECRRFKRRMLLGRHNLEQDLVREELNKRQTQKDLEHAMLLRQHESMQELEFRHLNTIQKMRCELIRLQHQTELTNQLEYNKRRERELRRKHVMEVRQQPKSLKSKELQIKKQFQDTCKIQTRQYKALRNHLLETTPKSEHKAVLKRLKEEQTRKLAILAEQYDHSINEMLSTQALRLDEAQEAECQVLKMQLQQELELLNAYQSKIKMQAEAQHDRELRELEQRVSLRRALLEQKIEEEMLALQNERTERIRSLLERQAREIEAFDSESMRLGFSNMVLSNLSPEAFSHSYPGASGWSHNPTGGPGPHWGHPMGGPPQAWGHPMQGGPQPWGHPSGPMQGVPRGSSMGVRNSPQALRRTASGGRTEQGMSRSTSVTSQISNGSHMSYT
# [7] = molecular target: Proto-oncogene tyrosine-protein kinase receptor Ret (Homo sapiens, UniProt P07949); assay type: functional;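 note: measured within a kinome-wide profiling panel, RET as the panel member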
# Sequence of Proto-oncogene tyrosine-protein kinase receptor Ret (P07949 whole entry): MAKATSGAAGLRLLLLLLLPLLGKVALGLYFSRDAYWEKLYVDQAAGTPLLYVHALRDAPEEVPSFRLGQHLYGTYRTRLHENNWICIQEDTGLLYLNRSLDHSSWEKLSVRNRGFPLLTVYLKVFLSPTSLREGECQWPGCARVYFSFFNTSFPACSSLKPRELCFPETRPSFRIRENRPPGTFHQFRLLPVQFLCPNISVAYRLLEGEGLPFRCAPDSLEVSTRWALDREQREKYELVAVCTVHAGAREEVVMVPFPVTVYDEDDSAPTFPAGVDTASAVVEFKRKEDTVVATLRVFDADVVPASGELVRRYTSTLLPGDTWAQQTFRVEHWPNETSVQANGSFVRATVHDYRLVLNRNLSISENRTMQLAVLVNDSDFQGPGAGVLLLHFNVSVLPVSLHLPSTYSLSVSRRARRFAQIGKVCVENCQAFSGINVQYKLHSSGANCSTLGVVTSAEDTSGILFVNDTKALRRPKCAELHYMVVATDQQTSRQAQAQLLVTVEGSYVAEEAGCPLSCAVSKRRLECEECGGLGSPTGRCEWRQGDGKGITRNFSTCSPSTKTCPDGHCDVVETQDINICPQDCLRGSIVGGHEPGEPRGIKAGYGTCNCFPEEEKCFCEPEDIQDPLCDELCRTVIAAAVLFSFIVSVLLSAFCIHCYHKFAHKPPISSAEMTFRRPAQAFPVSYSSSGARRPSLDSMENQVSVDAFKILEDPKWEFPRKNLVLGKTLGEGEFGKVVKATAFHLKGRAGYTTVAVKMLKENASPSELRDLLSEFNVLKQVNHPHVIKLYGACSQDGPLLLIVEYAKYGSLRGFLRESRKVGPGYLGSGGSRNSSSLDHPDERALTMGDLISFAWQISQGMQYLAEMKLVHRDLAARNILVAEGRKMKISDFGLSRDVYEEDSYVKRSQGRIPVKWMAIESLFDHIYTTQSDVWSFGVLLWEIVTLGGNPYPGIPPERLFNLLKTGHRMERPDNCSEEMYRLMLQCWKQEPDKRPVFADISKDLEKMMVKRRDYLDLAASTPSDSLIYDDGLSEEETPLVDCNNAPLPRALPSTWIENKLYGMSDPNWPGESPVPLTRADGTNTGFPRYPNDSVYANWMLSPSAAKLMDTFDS
# [8] = molecular target: Platelet-derived growth factor receptor alpha (Homo sapiens, UniProt P16234); assay: Navigating the Kinome. Panel member name: PDGFRA; assay type: functional
# [9] = molecular target: Cyclin-dependent kinase 8 (Homo sapiens, UniProt P49336); assay: Navigating the Kinome. Panel member name: CDK8; assay type: functional
# [10] = molecular target: Dual specificity mitogen-activated protein kinase kinase 2 (Homo sapiens, UniProt P36507); assay: Navigating the Kinome. Panel member name: MAP2K2; assay type: functional
# [11] = molecular target: Mitogen-activated protein kinase 14 (Homo sapiens, UniProt Q16539); assay type: functional;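 note: part of a kinome-wide panel, MAPK14 entry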
# [12] = molecular target: Cyclin-dependent kinase 9 (Homo sapiens, UniProt P50750); assay type: functional;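 note: value from the CDK9 entry of a kinome-spanning kinase panel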
# [13] = molecular target: Serine/threonine-protein kinase BRSK1 (Homo sapiens, UniProt Q8TDC3); assay type: functional;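 note: measured within a kinome-wide kinase panel, with the target listed as KIAA1811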
# [14] = molecular target: Proto-oncogene tyrosine-protein kinase Src (Homo sapiens, UniProt P12931); assay type: functional;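 note: SRC entry within a kinome-wide kinase profiling panel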
# [15] = molecular target: Serine/threonine-protein kinase PAK 1 (Homo sapiens, UniProt Q13153); assay type: functional
# [16] = molecular target: Serine/threonine-protein kinase 3 (Homo sapiens, UniProt Q13188); assay type: functional;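 note: measured as one member of a kinome-wide kinase panel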
# [17] = molecular target: Serine/threonine-protein kinase Nek4 (Homo sapiens, UniProt P51957); assay type: functional
# [18] = molecular target: Serine/threonine-protein kinase PLK3 (Homo sapiens, UniProt Q9H4B4); assay type: functional
# [19] = molecular target: Casein kinase II subunit alpha (Homo sapiens, UniProt P68400); assay type: functional
# [20] = molecular target: Homeodomain-interacting protein kinase 4 (Homo sapiens, UniProt Q8NE63); assay type: functional
# [21] = molecular target: Tyrosine-protein kinase SYK (Homo sapiens, UniProt P43405); assay type: functional
# [22] = molecular target: Calcium/calmodulin-dependent protein kinase type 1 (Homo sapiens, UniProt Q14012); assay type: functional
# [23] = molecular target: Serine/threonine-protein kinase N2 (Homo sapiens, UniProt Q16513); assay type: functional
# [24] = molecular target: cGMP-dependent protein kinase 1 (Homo sapiens, UniProt Q13976); assay type: functional;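 note: value from a kinome panel screen with PRKG1 as the panel member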
# [25] = molecular target: Receptor tyrosine-protein kinase erbB-4 (Homo sapiens, UniProt Q15303); assay type: functional;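 note: ERBB4 member of a kinome-wide kinase profiling panel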
# [26] = molecular target: Cyclin-dependent kinase 2 (Homo sapiens, UniProt P24941); assay type: functional;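 note: CDK2 measured as one member of a broad kinome profiling panel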
# [27] = molecular target: Serine/threonine-protein kinase pim-3 (Homo sapiens, UniProt Q86V86); assay type: functional;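 note: value obtained as one member of a broad kinase panel profiling effort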
# [28] = molecular target: RAC-gamma serine/threonine-protein kinase (Homo sapiens, UniProt Q9Y243); assay type: functional
# [29] = molecular target: Serine/threonine-protein kinase D2 (Homo sapiens, UniProt Q9BZL6); assay type: functional;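 note: measured against PRKD2 as one member of a kinome-wide kinase profiling panel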
# [30] = molecular target: Tyrosine-protein kinase receptor UFO (Homo sapiens, UniProt P30530); assay type: functional
# Misshapen-like kinase 1 = Misshapen-like kinase 1 (Homo sapiens, UniProt Q8N4C8); assay type: functional;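 note: kinome panel screen with MINK as the panel member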
# [31] = molecular target: Serine/threonine-protein kinase Chk1 (Homo sapiens, UniProt O14757); assay type: functional;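 note: measured as one member of a kinome-wide kinase profiling panel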
# [32] = molecular target: Non-receptor tyrosine-protein kinase TYK2 (Homo sapiens, UniProt P29597); assay type: functional
# [33] = molecular target: Phosphorylase b kinase gamma catalytic chain, liver/testis isoform (Homo sapiens, UniProt P15735); assay type: functional;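 note: PHKG2 measured as one member of a kinome-wide kinase panel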
# [34] = molecular target: Ribosomal protein S6 kinase alpha-5 (Homo sapiens, UniProt O75582); assay type: functional
# [35] = molecular target: Calcium/calmodulin-dependent protein kinase type II subunit delta (Homo sapiens, UniProt Q13557); assay type: functional
# [36] = molecular target: Serine/threonine-protein kinase pim-2 (Homo sapiens, UniProt Q9P1W9); assay type: functional;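 note: value comes from a broad kinase panel profiling study in which PIM2 was one of the panel members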
# [37] = molecular target: Mitogen-activated protein kinase 1 (Homo sapiens, UniProt P28482); assay type: functional
# [38] = molecular target: Homeodomain-interacting protein kinase 2 (Homo sapiens, UniProt Q9H2X6); assay type: functional;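 note: measured within a kinome-wide kinase profiling panel, HIPK2 being one panel member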
# [39] = growth suppression of beta-catenin-knockout colon cells, dose response, cell-based, HCT116, human colon tumor (AID 1045); assay type: functional;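 note: HCT116 colon tumor cells with beta catenin knocked out; cells exposed to compound for 60 hours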
# [40] = Luminescence Cell-Based Dose Confirmation HTS to Identify Activators of 5'UTR Stem-Loop Driven Alpha-Synuclein mRNA Translation in H4 Neuroglioblastoma Cells. [Related pubchem assays: 1829 (Project Summary), 1814 (Primary HTS)]; assay type: functional
# H4 = assay: Luminescence Cell-Based Dose Response HTS to Identify Activators of 5'UTR Stem-Loop Driven Prion Protein mRNA Translation in H4 Neuroglioblastoma Cells. [Related pubchem assays: 1829 (Project Summary), 1814 (Primary HTS)]; assay type: functional; details: Homo sapiens
# [41] = growth suppression of PTEN-null colon cells, dose response, cell-based, HCT116 PTEN knockout (AID 1047); assay type: functional;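 note: HCT116 colon tumor cells with PTEN knocked out; cells exposed to compound for 60 hours before readout; potency for loss of cell viability measured by luminescence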
# Sequence of Melanocortin receptor 4 (P32245 whole entry): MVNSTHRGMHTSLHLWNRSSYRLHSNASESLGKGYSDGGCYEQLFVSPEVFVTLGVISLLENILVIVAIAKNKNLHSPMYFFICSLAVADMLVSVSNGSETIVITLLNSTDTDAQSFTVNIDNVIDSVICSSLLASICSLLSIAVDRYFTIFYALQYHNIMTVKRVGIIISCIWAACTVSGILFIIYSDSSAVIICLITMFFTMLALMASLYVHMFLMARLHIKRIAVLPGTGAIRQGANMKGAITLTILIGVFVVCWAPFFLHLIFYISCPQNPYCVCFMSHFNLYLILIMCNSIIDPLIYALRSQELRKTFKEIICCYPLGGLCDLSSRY
smiles,measurement,setting,value
CCCCCCCCCCC[N+](C)(C)CC/C=C1/c2ccccc2Sc2ccc(Cl)cc21,IC50,Melanocortin receptor 4,24.3 µM (inactive)
same,AC50,[1],6.77 µM (active)
same,AC50,CAAX prenyl protease 1,7.07 µM (active)
CCn1c(-c2nonc2N)nc2cncc(C(=O)N3CCC(N)C3)c21 (stereo not given),Ki,[2],0.0631 µM (active)
same,Ki,[3],> 3.16 µM (inactive)
same,Ki,[4],> 3.16 µM (inactive)
same,Ki,[5],> 2.51 µM (inactive)
same,Ki,[6],> 6.31 µM (inactive)
same,Ki,[7],> 3.16 µM (inactive)
same,Ki,[8],> 2.51 µM (inactive)
same,Ki,[9],3.98 µM (active)
same,Ki,[10],> 3.98 µM (inactive)
same,Ki,[11],> 3.98 µM (inactive)
same,Ki,[12],> 1.58 µM (inactive)
Cc1[nH]nc2ccc(-c3cncc(OCC(N)Cc4c[nH]c5ccccc45)c3)cc12 (stereo not given),Ki,[13],3.98 µM (active)
same,Ki,[14],> 2 µM (inactive)
same,Ki,[15],1.26 µM (active)
same,Ki,[16],0.0501 µM (active)
same,Ki,[17],1 µM (active)
same,Ki,[18],> 7.94 µM (inactive)
same,Ki,[19],> 6.31 µM (inactive)
same,Ki,[20],0.501 µM (active)
same,Ki,[21],> 1.58 µM (inactive)
same,Ki,[22],> 7.94 µM (inactive)
same,Ki,[23],0.00501 µM (active)
same,Ki,[24],0.251 µM (active)
same,Ki,[3],> 2 µM (inactive)
same,Ki,[25],> 3.98 µM (inactive)
same,Ki,[26],0.0501 µM (active)
same,Ki,[4],> 2.51 µM (inactive)
same,Ki,[27],0.01 µM (active)
same,Ki,[28],0.00631 µM (active)
same,Ki,[29],0.0316 µM (active)
same,Ki,[5],> 2.51 µM (inactive)
same,Ki,[6],> 10 µM (inactive)
same,Ki,[30],0.794 µM (active)
same,Ki,Misshapen-like kinase 1,0.02 µM (active)
same,Ki,[7],> 1.26 µM (inactive)
same,Ki,[31],> 7.94 µM (inactive)
same,Ki,[32],> 2 µM (inactive)
same,Ki,[33],1 µM (active)
same,Ki,[34],0.000794 µM (active)
same,Ki,[35],0.0158 µM (active)
same,Ki,[36],0.00631 µM (active)
same,Ki,[37],0.316 µM (active)
same,Ki,[38],0.0794 µM (active)
COC(=O)c1ccccc1NC1=C/C(=N\S(=O)(=O)c2cccs2)c2ccccc2C1=O,EC50,[39],8.19 µM (active)
same,EC50,[40],> 120 µM (not active)
same,EC50,H4,1.89 µM (active)
same,EC50,[41],7.96 µM (active)
